Laboratory results taken from US9795632B2, “Cancer treatments and compositions for use thereof” (priority 2012, dated 2017).

Experiments:
[1] = test system: capillary circulation of the skin; assay: Laser Doppler circulation study in five human subjects (Example 7); format: in vivo; conditions: positive control formulation containing 0.1% methyl nicotinate
Source text: This example illustrates delivery of nitric oxide formulations to five human subjects, using procedures and formulations similar to those discussed in Example 5. Each person served as their own control for the testing. A Moor Instruments Laser Doppler was used to determine circulation. […] The formulations used produce positive, almost immediate results when applied to the skin which, in these studies, was manifested by vasodilatation of the cutaneous vascular system. For each subject, the following creams were applied: a negative control formulation (containing no NO), 0.010 gram of a 10,000 ppm NO formulation, 0.020 gram of a 10,000 ppm NO formulation, and a positive control formulation containing 0.1% methyl nicotinate. The formulations were prepared using procedures similar to those discussed in Example 1.

[2] = test system: micro-capillary blood flow to skin; assay: Laser Doppler microcirculation study in three human female subjects, 10,000 ppm NO (Example 5); format: in vivo; conditions: applied to the skin at 1/10% in alcohol
Method: This example illustrates delivery of nitric oxide formulations similar to those discussed herein in humans. In these studies, laser Doppler studies were performed on three human female subjects. […] The formulations used produce positive, almost immediate results when applied to the skin which, in these studies, was manifested by vasodilatation of the cutaneous vascular system.
While nitric oxide has many physiological effects, the purpose of these studies was to measure physiological effects that would be relatively easy to determine, and which would be noninvasive. […] Nitric oxide is capable of […] the capillary bed, and thus, laser Doppler was selected.
The formulation used in these studies contained nitric oxide dispersed in a lipid matrix. […] This provided a stable measuring device as determined by multiple normal evaluations of the capillary blood flow without treatment of nitric oxide.
A known positive control, methyl nicotinate, was applied to the skin at a concentration of 1/10% in alcohol. […] The laser Doppler device accurately measured these parameters.
In these studies, the participants were healthy females aged 30 to 55 years. They were in good health as determined by the medical history and were not taking any prescription medications. All study participants read and signed the informed consent statement prior to any study procedures being performed. […]

For `COC(=O)c1cccnc1` [methyl nicotinate], the “Vasodilatation (laser Doppler)” value [1] was “vasodilatation was observed” and the “Vasodilator response of positive control” value [2] was “rapid response typical of the vasodilator”.
